In ChEMBL document CHEMBL4229477, “Reevaluating the Substrate Specificity of the L-Type Amino Acid Transporter (LAT1)” (J Med Chem, 2018):
pIC50: −log10 of the molar value.

Biological target: Large neutral amino acids transporter small subunit 1 (Homo sapiens, UniProt Q01650)
Assay: Cis-inhibition of human LAT1 expressed in TREx HEK293 cells at 200 uM assessed as inhibition of [3H]-gabapentin uptake preincubated for 3 mins at 37 degC followed by washing with choline buffer and measured after 3 hrs by scintillation counting analysis relative to BCH
Assay type: cell-based

Sequence of Large neutral amino acids transporter small subunit 1 (Q01650 whole entry): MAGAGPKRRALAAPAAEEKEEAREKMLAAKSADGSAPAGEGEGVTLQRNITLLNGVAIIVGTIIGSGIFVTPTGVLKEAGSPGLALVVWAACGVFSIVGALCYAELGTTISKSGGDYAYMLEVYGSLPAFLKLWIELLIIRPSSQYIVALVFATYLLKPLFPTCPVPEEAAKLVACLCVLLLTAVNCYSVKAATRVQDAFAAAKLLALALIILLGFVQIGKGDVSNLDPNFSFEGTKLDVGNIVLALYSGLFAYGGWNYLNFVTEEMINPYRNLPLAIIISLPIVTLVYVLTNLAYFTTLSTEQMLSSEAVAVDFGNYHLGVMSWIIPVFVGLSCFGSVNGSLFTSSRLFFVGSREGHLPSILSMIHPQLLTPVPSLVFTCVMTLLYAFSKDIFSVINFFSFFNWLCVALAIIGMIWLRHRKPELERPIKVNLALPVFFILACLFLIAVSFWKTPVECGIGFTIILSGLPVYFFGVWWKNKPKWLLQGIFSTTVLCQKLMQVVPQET

| pIC50 | Structure (SMILES) |
| --- | --- |
| 4.44 | COC(=O)c1cccc(C[C@H](N)C(=O)O)c1 |
| 4.17 | CC(C)[C@H](N)C(=O)O [VALINE] |
| 3.72 | Cn1cnc(C[C@H](N)C(=O)O)c1 |
| 3.09 | C[C@@](N)(Cc1ccccc1)C(=O)O |
| 3.85 | CC[C@H](C)[C@H](N)C(=O)O [ISOLEUCINE] |
| 3.77 | CSCC[C@H](N)C(=O)O [METHIONINE] |
| 3.92 | CSCC[C@@H](N)C(=O)O |
| 3.89 | N[C@@H](Cc1cccc(C(=O)O)c1)C(=O)O |
| 4.16 | N[C@@H](Cc1ccccc1)C(=O)O [PHENYLALANINE] |
| 4.12 | COC(=O)Cc1cccc(C[C@H](N)C(=O)O)c1 |
| 3.82 | COC(=O)c1cccc(C[C@@H](N)C(=O)O)c1 |
| 3.80 | N[C@@H](Cc1ccccn1)C(=O)O |
| 4.02 | COC(=O)c1cc(C)cc(C[C@H](N)C(=O)O)c1 |
| 4.16 | N[C@@H](Cc1cccnc1)C(=O)O |
| 4.00 | N[C@@H](Cc1ccncc1)C(=O)O |
| 4.34 | N[C@H](Cc1ccccc1)C(=O)O [D-PHENYLALANINE] |
| 3.89 | C[C@](N)(Cc1ccccc1)C(=O)O |
| < 1.30 | CC(C)[C@@H](N)C(=O)O |
| 3.66 | CC(C)C[C@@H](N)C(=O)O [D-LEUCINE] |

| pIC50 | Structure (SMILES) |
| --- | --- |
| 4.54 | N[C@@H](Cc1cccc(C(=O)OCCO)c1)C(=O)O |
| 3.34 | N[C@H](Cc1c[nH]cn1)C(=O)O [D-HISTIDINE] |
| 3.96 | CC(=O)Nc1cccc(C[C@H](N)C(=O)O)c1 |
| 4.08 | N[C@@H](Cc1cccc(CO)c1)C(=O)O |
| 3.70 | N[C@@H](CC1CCCCC1)C(=O)O |
| 3.77 | N[C@@H](Cc1cn(Cc2ccccc2)cn1)C(=O)O |
| 4.04 | CC(=O)c1cccc(C[C@H](N)C(=O)O)c1 |
| 4.00 | Nc1cccc(C[C@H](N)C(=O)O)c1 |
| 3.59 | N[C@H](CC1CCCCC1)C(=O)O |
| 3.62 | CSCC[C@](N)(Cc1ccccc1)C(=O)O |
| 3.89 | N[C@@H](Cc1cccc(O)c1)C(=O)O |
| 4.70 | N[C@@H](Cc1c[nH]cn1)C(=O)O [HISTIDINE] |
| 3.17 | Cc1cc(C[C@H](N)C(=O)O)cc(C(=O)O)c1 |
| 3.33 | NCc1cccc(C[C@H](N)C(=O)O)c1 |
| 3.59 | COC(=O)c1ccc(C[C@H](N)C(=O)O)cc1 |
| 4.02 | CNC(=O)c1cccc(C[C@H](N)C(=O)O)c1 |
| < 2.52 | CC[C@H](C)[C@@H](N)C(=O)O |
| 4.07 | CC(C)C[C@H](N)C(=O)O [LEUCINE] |
| 4.77 | CC(C)(C)OC(=O)c1cccc(C[C@H](N)C(=O)O)c1 |

| Structure (SMILES) | pIC50 |
| --- | --- |
| N[C@@H](Cc1ccc(O)cc1)C(=O)O [TYROSINE] | 4.17 |
| N[C@H](Cc1c[nH]c2ccccc12)C(=O)O [D-TRYPTOPHAN] | 3.42 |
| N[C@H](Cc1ccc(O)cc1)C(=O)O | 3.42 |
| N[C@@H](Cc1c[nH]c2ccccc12)C(=O)O [TRYPTOPHAN] | 3.80 |
